SMILES strings stand for the structures.

Holding throughout (assay type): biochemical
For one assay, the target named is c-MET kinase (Homo sapiens (Human), UniProt P08581). Nature of the assay: Assay of small molecular compounds for inhibiting the activity of c-MET kinase (LANCE TR-FRET). As to conditions: read-out: CMET IC50. On the procedure: The assay is based on the LANCE TR-FRET technology of Perkin Elmer Inc., and the assay method is as follows: • 1. Dilution of compounds: a total of 11 concentrations were obtained using a 3-fold gradient dilution from the highest concentration of 2500 nM (the maximum final concentration of the drug used in this assay was 2500 nM, and the minimum final concentration was 0.042 nM). • 2. 2.5 μL of the gradient-diluted compounds were taken with a transfer pipette to a 384-well plate. • 3. Addition of enzyme: 5 μL of 2×c-MET kinase solution (with a concentration of 2 nM) was taken with a transfer pipette to the corresponding reaction well of the 384-well plate, mixed well and pre-reacted at room temperature for 5 minutes. • 4. 2.5 μL 4× Ultra ULight™-JAK-1 (Tyr1023) Peptide (with a concentration of 400 nM)/ATP (with a concentration of 40 μM) mixture was taken with a transfer pipette to the corresponding reaction well of the 384-well plate. • 5. Negative control: 2.5 μL/well 4× substrate/ATP mixture and 7.5 μL 1× Kinase Assay Buffer were added to the wells of the 384-well plate. • 6. Positive control: 2.5 μL/well 4× substrate/ATP mixture, 2.5 μL/well 1× Kinase Assay Buffer containing 16% DMSO, and 5 μL/well 2× c-MET kinase solution were added to the 384-well plate. The final concentration of DMSO in the reaction system was 4%. • 7. The mixture was mixed well and then centrifuged and reacted at room temperature in dark for 60 min. • 8. Termination of the enzymatic reaction: 5 μL of 4× stop solution was taken with a transfer pipette to the wells of the 384-well plate, mixed and then centrifuged, and reacted at room temperature for 5 min. • 9. Development of the reaction: 5 μL of 4× detection solution was taken with a transfer pipette to the wells of the 384-well plate for color development, and the mixture was mixed and then centrifuged and reacted at room temperature for 60 min. • 10. The 384-well plate was placed into the Envision plate reader and the signal was detected using the appropriate program. • 11. Analysis and processing of the raw data: • 12. The drug concentrations and the corresponding inhibition rates were input into GraphPad Prism5 for calculation, and the inhibition rate of the compounds were calculated as follows: inhibition rate (%)=(reading of positive well−reading of experimental well)/(reading of positive control well−reading of negative control well)×100%. Processing with GraphPad Prism5 software yielded the corresponding IC50 values (the concentration of the compound at which 50% of the highest inhibition of the enzyme is achieved).
In general terms: In TR-FRET formats the signal depends on donor and acceptor labels being close together.

For the next assay, the target named is MER kinase (Homo sapiens (Human), UniProt Q12866). The assay is described as follows: Assay of small molecular compounds for inhibiting the activity of MER kinase (LANCE TR-FRET). On the procedure:
The assay of small molecular compounds for inhibiting the activity of MER kinase is based on the LANCE TR-FRET technology of Perkin Elmer Inc., and the assay method is as follows: • 1. Dilution of compounds: a total of 11 concentrations were obtained using a 3-fold gradient dilution from the highest concentration of 2500 nM (the maximum final concentration of the drug used in this assay was 2500 nM, and the minimum final concentration was 0.042 nM). • 2. 2.5 μL of the gradient-diluted compounds were taken with a transfer pipette to a 384-well plate. • 3. Addition of enzyme: 5 μL of 2×MER kinase solution (with a concentration of 1 nM) was taken with a transfer pipette to the corresponding reaction well of the 384-well plate, mixed well and pre-reacted at room temperature for 5 minutes. • 4. 2.5 μL 4× ULight-labeled Ploy GT (with a concentration of 200 nM)/ATP (with a concentration of 20 μM) mixture was taken with a transfer pipette to the corresponding reaction well of the 384-well plate. • 5. Negative control: 2.5 μL/well 4× substrate/ATP mixture and 7.5 μL 1× Kinase Assay Buffer were added to the wells of the 384-well plate.
(§1) Positive control: 2.5 μL/well 4× substrate/ATP mixture, 2.5 μL/well 1× Kinase Assay Buffer containing 4% DMSO, and 5 μL/well 2×MER kinase solution were added to the 384-well plate. The final concentration of DMSO in the reaction system was 1%. • 6. The mixture was mixed well and then centrifuged and reacted at room temperature in dark for 60 min. • 7. Termination of the enzymatic reaction: 5 μL of 4× stop solution was taken with a transfer pipette to the wells of the 384-well plate, mixed and then centrifuged, and reacted at room temperature for 5 min. • 8. Development of the reaction: 5 μL of 4× detection solution was taken with a transfer pipette to the wells of the 384-well plate for color development, and the mixture was mixed and then centrifuged and reacted at room temperature for 60 min. • 9. The 384-well plate was placed into the Envision plate reader and the signal was detected using the appropriate program. • 10. Analysis and processing of the raw data:
The drug concentrations and the corresponding inhibition rates were input into GraphPad Prism5 for calculation, and the inhibition rate of the compounds were calculated as follows: inhibition rate (%)=(reading of positive well−reading of experimental well)/(reading of positive control well−reading of negative control well)×100%. Processing with GraphPad Prism5 software yielded the corresponding IC50 values (the concentration of the compound at which 50% of the highest inhibition of the enzyme is achieved).

For another assay, the target named is TRKA kinase (Homo sapiens (Human), UniProt P04629). Nature of the assay: Assay of small molecular compounds for inhibiting the activity of TRKA kinase (LANCE TR-FRET). On the procedure:
The assay of small molecular compounds for inhibiting the activity of TRKA kinase is based on the LANCE TR-FRET technology of Perkin Elmer Inc., and the assay method is as follows: • 1. […] 2.5 μL of the gradient-diluted compounds were taken with a transfer pipette to a 384-well plate. • 3. Addition of enzyme: 5 μL of 2×TRKA kinase solution (with a concentration of 2 nM) was taken with a transfer pipette to the corresponding reaction well of the 384-well plate, mixed well and pre-reacted at room temperature for 5 minutes. • 4. 2.5 μL 4× Ultra ULight-labeled TK Peptide (with a concentration of 400 nM)/ATP (with a concentration of 40 μM) mixture was taken with a transfer pipette to the corresponding reaction well of the 384-well plate. • 5. Negative control: 2.5 μL/well 4× substrate/ATP mixture and 7.5 μL 1× Kinase Assay Buffer were added to the wells of the 384-well plate.
as §1, with “2×TRKA” for “2×MER”, “program.” for “program. • 10. Analysis and processing of the raw data:”

Sequence of TRKA kinase (P04629 33-796): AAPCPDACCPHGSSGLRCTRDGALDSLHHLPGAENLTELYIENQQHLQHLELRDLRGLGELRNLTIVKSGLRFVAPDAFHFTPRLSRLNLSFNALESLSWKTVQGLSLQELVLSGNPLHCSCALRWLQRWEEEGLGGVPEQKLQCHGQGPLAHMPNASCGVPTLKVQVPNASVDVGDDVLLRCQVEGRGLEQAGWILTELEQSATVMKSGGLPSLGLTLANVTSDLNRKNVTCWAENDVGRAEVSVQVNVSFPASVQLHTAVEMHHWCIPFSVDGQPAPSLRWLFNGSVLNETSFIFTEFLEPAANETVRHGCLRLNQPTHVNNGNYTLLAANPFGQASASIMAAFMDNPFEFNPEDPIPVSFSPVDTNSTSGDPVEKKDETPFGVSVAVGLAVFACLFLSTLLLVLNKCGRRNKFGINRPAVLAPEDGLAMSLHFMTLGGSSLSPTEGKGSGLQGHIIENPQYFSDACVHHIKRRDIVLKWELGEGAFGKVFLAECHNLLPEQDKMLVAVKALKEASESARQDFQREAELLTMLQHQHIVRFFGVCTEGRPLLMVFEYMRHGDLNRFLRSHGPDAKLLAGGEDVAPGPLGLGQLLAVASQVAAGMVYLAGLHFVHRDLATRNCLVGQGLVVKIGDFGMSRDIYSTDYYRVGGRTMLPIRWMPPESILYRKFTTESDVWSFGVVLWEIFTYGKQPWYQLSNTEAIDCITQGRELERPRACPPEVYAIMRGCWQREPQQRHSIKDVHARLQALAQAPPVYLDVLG
Sequence of c-MET kinase (P08581 25-1390): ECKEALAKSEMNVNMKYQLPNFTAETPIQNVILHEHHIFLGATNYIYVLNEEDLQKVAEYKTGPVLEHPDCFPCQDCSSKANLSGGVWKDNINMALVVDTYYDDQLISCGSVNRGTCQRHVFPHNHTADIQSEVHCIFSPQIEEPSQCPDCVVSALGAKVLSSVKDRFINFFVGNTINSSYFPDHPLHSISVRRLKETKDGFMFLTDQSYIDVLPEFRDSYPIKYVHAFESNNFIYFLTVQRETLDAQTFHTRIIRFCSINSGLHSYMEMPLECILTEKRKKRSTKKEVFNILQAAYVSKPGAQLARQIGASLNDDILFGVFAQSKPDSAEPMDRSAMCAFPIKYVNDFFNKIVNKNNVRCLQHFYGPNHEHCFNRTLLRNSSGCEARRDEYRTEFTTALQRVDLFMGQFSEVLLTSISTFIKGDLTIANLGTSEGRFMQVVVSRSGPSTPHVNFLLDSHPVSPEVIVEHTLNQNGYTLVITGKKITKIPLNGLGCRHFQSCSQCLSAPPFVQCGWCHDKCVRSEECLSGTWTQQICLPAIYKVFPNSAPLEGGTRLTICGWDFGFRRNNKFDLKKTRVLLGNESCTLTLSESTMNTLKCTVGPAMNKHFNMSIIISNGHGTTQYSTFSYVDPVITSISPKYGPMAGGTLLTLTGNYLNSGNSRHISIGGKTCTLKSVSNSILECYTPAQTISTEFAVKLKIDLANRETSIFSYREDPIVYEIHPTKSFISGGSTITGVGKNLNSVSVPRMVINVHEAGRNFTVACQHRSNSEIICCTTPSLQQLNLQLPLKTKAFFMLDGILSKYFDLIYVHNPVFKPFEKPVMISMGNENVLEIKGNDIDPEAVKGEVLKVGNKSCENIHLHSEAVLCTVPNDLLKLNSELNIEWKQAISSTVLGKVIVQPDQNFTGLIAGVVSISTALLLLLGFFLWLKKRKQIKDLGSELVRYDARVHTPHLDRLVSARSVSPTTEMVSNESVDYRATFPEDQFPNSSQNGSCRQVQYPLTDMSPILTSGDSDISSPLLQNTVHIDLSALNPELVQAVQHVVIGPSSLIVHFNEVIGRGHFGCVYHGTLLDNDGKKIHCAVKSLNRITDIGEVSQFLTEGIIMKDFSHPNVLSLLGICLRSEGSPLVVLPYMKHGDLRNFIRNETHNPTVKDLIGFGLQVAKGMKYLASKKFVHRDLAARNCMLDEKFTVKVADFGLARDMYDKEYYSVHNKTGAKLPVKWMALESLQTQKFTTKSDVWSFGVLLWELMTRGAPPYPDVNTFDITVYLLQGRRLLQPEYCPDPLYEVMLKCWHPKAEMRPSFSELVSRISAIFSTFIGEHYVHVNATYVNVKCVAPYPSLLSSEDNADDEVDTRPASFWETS
Sequence of MER kinase (Q12866 21-999): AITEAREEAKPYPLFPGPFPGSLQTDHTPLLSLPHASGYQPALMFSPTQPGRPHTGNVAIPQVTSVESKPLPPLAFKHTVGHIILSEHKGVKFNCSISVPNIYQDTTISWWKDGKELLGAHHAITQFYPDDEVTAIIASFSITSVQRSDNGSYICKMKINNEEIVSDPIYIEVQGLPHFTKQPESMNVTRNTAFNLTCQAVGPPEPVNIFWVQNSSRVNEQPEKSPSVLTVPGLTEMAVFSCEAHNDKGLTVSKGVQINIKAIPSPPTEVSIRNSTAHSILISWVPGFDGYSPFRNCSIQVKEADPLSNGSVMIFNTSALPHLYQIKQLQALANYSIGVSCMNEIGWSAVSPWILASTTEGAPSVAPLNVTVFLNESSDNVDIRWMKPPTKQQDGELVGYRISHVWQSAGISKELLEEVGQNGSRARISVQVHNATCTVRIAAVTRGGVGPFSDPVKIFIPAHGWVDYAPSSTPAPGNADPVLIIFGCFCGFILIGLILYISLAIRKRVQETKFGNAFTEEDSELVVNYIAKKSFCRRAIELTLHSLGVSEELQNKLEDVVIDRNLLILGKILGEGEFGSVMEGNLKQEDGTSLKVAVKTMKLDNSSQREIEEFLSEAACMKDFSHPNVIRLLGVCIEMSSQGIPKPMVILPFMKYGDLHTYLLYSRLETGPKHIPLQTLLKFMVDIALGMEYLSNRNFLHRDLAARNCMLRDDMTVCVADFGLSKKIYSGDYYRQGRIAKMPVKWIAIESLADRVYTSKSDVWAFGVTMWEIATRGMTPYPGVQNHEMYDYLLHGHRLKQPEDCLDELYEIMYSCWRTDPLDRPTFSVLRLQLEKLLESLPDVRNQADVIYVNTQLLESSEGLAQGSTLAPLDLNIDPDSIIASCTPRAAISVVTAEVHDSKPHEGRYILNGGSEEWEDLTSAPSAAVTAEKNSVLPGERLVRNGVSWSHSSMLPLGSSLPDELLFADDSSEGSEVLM

What is called IC50 is the concentration that gives 50% inhibition. As to `COc1cc2ncnc(Oc3ccc(NC(=O)c4ccn(-c5ccc(F)cc5C)n4)cc3F)c2c2c1OCCO2` [Example 7, 1-(4-fluoro-2-methylphenyl)-N-(3-fluoro-4-((5-methoxy-2,3-dihydro-[1,4]dioxino[2,3-f]quinazolin-10-yl)oxy)phenyl)-1H-pyrazole-3-carboxamide], the IC50 at c-MET kinase was in the range of 0.05 to 0.5 µM; on MER kinase, 0.5 to 5 µM.
In the case of `COc1cc2nccc(Oc3ccc(NC(=O)c4cn(C(C)C)c(=O)n(C5CCCCC5)c4=O)cc3F)c2c2c1OCCO2` [Example 157, N-(3-fluoro-4-((5-methoxy-2,3-dihydro-[1,4]dioxino[2,3-f]quinolin-10-yl)oxy)phenyl)-3-cyclohexyl-1-isopropyl-2,4-dioxo-1,2,3,4-tetrahydropyrimidine-5-carboxamide], the IC50 was 0.5 to 5 µM against TRKA kinase and 0.05 to 0.5 µM against MER kinase.
Take `Cn1cc(C(=O)Nc2ccc(Oc3ccnc4ccc5c(c34)OCCO5)c(F)c2)c(=O)n(-c2ccc(F)cc2)c1=O` [Example 160, N-(4-((2,3-dihydro-[1,4]dioxino[2,3-f]quinolin-10-yl)oxy)-3-fluorophenyl)-3-(4-fluorophenyl)-1-methyl-2,4-dioxo-1,2,3,4-tetrahydropyrimidine-5-carboxamide]: on TRKA kinase, the IC50 was in the range of 0.05 to 0.5 µM.
As for `CCn1cc(C(=O)Nc2ccc(Oc3ccnc4ccc5c(c34)OCCO5)c(F)c2)c(=O)n(-c2ccc(F)cc2)c1=O` [Example 161, N-(4-((2,3-dihydro-[1,4]dioxino[2,3-f]quinolin-10-yl)oxy)-3-fluorophenyl)-3-(4-fluorophenyl)-1-ethyl-2,4-dioxo-1,2,3,4-tetrahydropyrimidine-5-carboxamide], the IC50 on TRKA kinase was in the range of 0.05 to 0.5 µM.
With `CCn1cc(C(=O)Nc2ccc(Oc3ccnc4ccc5c(c34)OCCO5)cc2F)c(=O)n(-c2ccc(F)cc2)c1=O` [Example 163, N-(4-((2,3-dihydro-[1,4]dioxino[2,3-f]quinolin-10-yl)oxy)-2-fluorophenyl)-3-(4-fluorophenyl)-1-ethyl-2,4-dioxo-1,2,3,4-tetrahydropyrimidine-5-carboxamide], the IC50 against TRKA kinase is 0.05 to 0.5 µM.
`CCOc1ccn(-c2ccc(F)cc2)c(=O)c1C(=O)Nc1ccc(Oc2ccnc3ccc4c(c23)OCCO4)cc1` [Example 164, N-(4-((2,3-dihydro-[1,4]dioxino[2,3-f]quinolin-10-yl)oxy)phenyl)-4-ethoxy-1-(4-fluorophenyl)-2-oxo-1,2-dihydropyridine-3-carboxamide]: the IC50 against TRKA kinase is 0.05 to 0.5 µM; on c-MET kinase, ≤ 0.05 µM.
Consider `O=C(Nc1ccc(Oc2ccnc3ccc4c(c23)OCCO4)cc1)c1cccn(-c2ccc(F)cc2)c1=O` [Example 165, N-(4-((2,3-dihydro-[1,4]dioxino[2,3-f]quinolin-10-yl)oxy)phenyl)-1-(4-fluorophenyl)-2-oxo-1,2-dihydropyridine-3-carboxamide], for which the IC50 on TRKA kinase is 0.05 to 0.5 µM; at c-MET kinase it was ≤ 0.05 µM.
In the same order, the values of `COc1ccn(-c2ccc(F)cc2)c(=O)c1C(=O)Nc1ccc(Oc2ccnc3ccc4c(c23)OCCO4)cc1` [Example 166, N-(4-((2,3-dihydro-[1,4]dioxino[2,3-f]quinolin-10-yl)oxy)phenyl)-4-methoxy-1-(4-fluorophenyl)-2-oxo-1,2-dihydropyridine-3-carboxamide] are 0.05 to 0.5 µM and 0.05 to 0.5 µM.
For `COc1ccn(-c2ccc(F)cc2)c(=O)c1C(=O)Nc1ccc(Oc2ccnc3ccc4c(c23)OCCO4)c(F)c1` [Example 167, N-(4-((2,3-dihydro-[1,4]dioxino[2,3-f]quinolin-10-yl)oxy)-3-fluorophenyl)-1-(4-fluorophenyl)-4-methoxy-2-oxo-1,2-dihydropyridine-3-carboxamide], the IC50 at TRKA kinase was 0.05 to 0.5 µM; on c-MET kinase, ≤ 0.05 µM.
`CCOc1ccn(-c2ccc(F)cc2)c(=O)c1C(=O)Nc1ccc(Oc2ccnc3ccc4c(c23)OCCO4)c(F)c1` [Example 168, N-(4-((2,3-dihydro-[1,4]dioxino[2,3-f]quinolin-10-yl)oxy)-3-fluorophenyl)-1-(4-fluorophenyl)-4-ethoxy-2-oxo-1,2-dihydropyridine-3-carboxamide] displayed an IC50 against TRKA kinase of 0.05 to 0.5 µM.
On TRKA kinase, `Cn1cc(C(=O)Nc2cc(F)c(Oc3ccnc4ccc5c(c34)OCCO5)cc2Cl)c(=O)n(-c2ccc(F)cc2)c1=O` [Example 173, N-(2-chloro-4-((2,3-dihydro-[1,4]dioxino[2,3-f]quinolin-10-yl)oxy)-5-fluorophenyl)-3-(4-fluorophenyl)-1-methyl-2,4-dioxo-1,2,3,4-tetrahydropyrimidine-5-carboxamide] showed an IC50 of 0.05 to 0.5 µM.
For the compound `CCn1cc(C(=O)Nc2cc(F)c(Oc3ccnc4ccc5c(c34)OCCO5)cc2Cl)c(=O)n(-c2ccc(F)cc2)c1=O` [Example 174, N-(2-chloro-4-((2,3-dihydro-[1,4]dioxino[2,3-f]quinolin-10-yl)oxy)-5-fluorophenyl)-3-(4-fluorophenyl)-1-ethyl-2,4-dioxo-1,2,3,4-tetrahydropyrimidine-5-carboxamide], the IC50 against TRKA kinase was < 0.05 µM.
On the same count and under the same terms, for `CCn1cc(C(=O)Nc2cc(F)c(Oc3ccnc4ccc5c(c34)OCCO5)cc2C)c(=O)n(-c2ccc(F)cc2)c1=O` [Example 176, N-(4-((2,3-dihydro-[1,4]dioxino[2,3-f]quinolin-10-yl)oxy)-5-fluoro-2-methylphenyl)-3-(4-fluorophenyl)-1-ethyl-2,4-dioxo-1,2,3,4-tetrahydropyrimidine-5-carboxamide] the value was 0.05 to 0.5 µM.
